# From US12622925B2 (priority 2018, dated 2026)
# Tested on: Hydra vulgaris
# Assay type: in vivo
# Settings: results in 100% hydra mortality in 92 h
# Protocol: Hydra vulgaris were obtained from Environment Canada (Montreal, Qc) and maintained at 18° C. The hydra classification method (Wilby, O. K., Tesh, J. M., & Shore, P. R., 1990) was used with modification to rate morphology of the adult hydra as an indicator of solution toxicity. In this assay, the scoring of hydra morphology is objective and repeatable with representation in detail in previous literature. The assay included monitoring times at shorter intervals during the first two days (0, 4, 20, and 28 h) and 24 h intervals for the last three days (44, 68, and 92 h). Solutions were not changed during testing. The hydra morphological response was scored and recorded after exposure of toxin with and without sorbent treatment. Mature and non-budding hydra in similar sizes were chosen for testing in order to minimize differences between samples. Controls for this experiment included hydra media. […] The score or average toxicity rating was determined by calculating the average score for morphological changes for a certain group at a specific time point.
# FIG. 2 is a depiction of the hydra morphology scale by Wilby (1988): The scale is graded from 0-10, where 10 represents a normal living hydra and 0 represents a disintegrated hydra. The physiologic conditions of hydra were assessed with a dissecting microscope.
compound,measurement,value
"C[C@H]1CCCC(=O)CCC/C=C/c2cc(O)cc(O)c2C(=O)O1 [ZEN, zearalenone]",minimal effective concentration (MEC),4 ppm
